Source: patent publication US11400131B2, “Multi-peptide composition” (King's College London, priority 2015, dated 2022)

Key:
proinsulin = assay: Serum proinsulin specific IgG after mono-/multi-PI treatment; assay type: in vivo, HLA-DR4-Tg mice; conditions: 4 weekly intradermal injections of individual peptide; FIG. 4E-F
Description: In brief, tolerance to proinsulin was breached in mice by subcutaneous immunisation with 100 μg proinsulin protein emulsified in CFA and treatment with intraperitoneal pertussis toxin immediately and 1 day after immunisation. Mice then received 4 weekly intradermal treatments of 10 μg control-PI or proinsulin mono/multi-PI (C13-32 (SEQ ID NO: 4); C19-A3 (SEQ ID NO: 5); C22-A5 (SEQ ID NO:6)), before subcutaneous immunisation with 100 μg proinsulin protein emulsified in IFA to boost the ongoing autoimmune response (A). Lymph nodes (LNs) were harvested 7 days later and LN cell suspensions were cultured with or without proinsulin protein or peptide (C13-32; C19-A3; C22-A5) for 48 hours in vitro. Proliferation of CD4^+ T cells and IFN-γ production were analysed by CFSE dilution at 96 hours (B) and ELISA at 48 hours (C) in response to in vitro stimulation with 50 μg/mL proinsulin protein and 10 μg/mL peptides (C13-32; C19-A3; C22-A5). Serum levels of proinsulin specific IgG1 were measured at day 42 (D). Percentages of proliferating CD3^+CD4^+CD25^highFoxP3^+ Tregs were measured by flow cytometry in LN cultures at day 42 (E). Data are representative of three independent experiments. *p<0.05, **p<0.01, ***p<0.001; Statistical significance was determined by one-way ANOVA or Student's t test. 15 mice per group in B and C; 5 mice per group D-F.
Tolerance to proinsulin was breached in mice by subcutaneous immunisation with 100 μg proinsulin protein emulsified in CFA and treatment with intraperitoneal pertussis toxin immediately and 1 day after immunisation. […] Proliferation and cytokine production were analysed by thymidine incorporation and ELISA and the mean±SEM proliferation in response to 50 μg/mL proinsulin (B) and IFN-γ production in response to 50 μg/mL proinsulin (C) or 10 μg/mL proinsulin peptides, in DLN cultures is shown. Percentage of proliferating CD3^+CD4^+CD25^highFoxP3^+ Tregs was measured by flow cytometry in LN cultures at day 42 (E). Serum levels of proinsulin specific IgG1 were measured at day 42 (F). […]

[1] = system: peripheral blood mononuclear cells; assay: IFN-γ ELISPOT response of Type 1 diabetes patients to nested IA-2 peptides; assay type: cell-based, human; conditions: nested peptides compared with parental sequences; response positive when SI ≥3; FIG. 1
Description: Detection of interferon (IFN)-γ by CD4^+ T cells in response to peptide stimulation was carried out using an enzyme-linked immunospot (ELISPOT) assay that has significant discriminative ability for type 1 diabetes in blinded proficiency testing, as previously described (Arif, S. et al. J Clin Invest 2004; 113: 451-463 and Herold, K. C. et al. Diabetes 2009; 58: 2588-2595). Data are expressed as the mean number of spots per triplicate and compared with the mean spot number in the presence of diluent alone (stimulation index; SI). A response is considered positive when the SI is ≥3 using cut-offs determined using receiver-operator characteristic plots as previously described (Arif, S. et al. J Clin Invest 2004; 113: 451-463).
The results are shown for 3 parental sequences (cross-hatched), and these are compared with shorter nested sequence peptides. Responses represent IFN-γ production by peripheral blood mononuclear cells cultured with each peptide, as detected using an enzyme-linked immunospot assay.

Substance	therapeutic potency of mono-PI in contrast to multi-PI (proinsulin)	proportion of Type 1 diabetes patients responding (IFN-γ production) [1]
C22-A5: fragment of PI, comprising residues C22-A5 (QPLALEGSLQKRGIVEQ; listed as Homo sapiens) [Group C22-A5]	lower levels of therapeutic potency	
718-36: fragment of IA-2, comprising residues 718-736 (AYQAEPNTCATAQGEGNIK; listed as Homo sapiens) [Group 718-36]		preferential sequences
C19-A3: fragment of PI, comprising residues C19-A3 (GSLQPLALEGSLQKRGIV; listed as Homo sapiens) [Group C19-A3]	lower levels of therapeutic potency	
C13-32: fragment of PI, comprising residues C13-C32 (GGGPGAGSLQPLALEGSLQK; listed as Homo sapiens) [Group C13-32]	lower levels of therapeutic potency	
855-67: fragment of IA-2, comprising residues 855-867 (YLKNVQTQETRTL; listed as Homo sapiens) [Group 855-67]		preferential sequences
